Legend:
human GLP-1R = target: T1, human GLP-1R (Homo sapiens, UniProt P43220); assay: Agonist activity on human GLP-1R, CRE-luciferase reporter assay with increase in intracellular cAMP as indicator (hGLP-1R/CRE-luc/CHO-K1 cell); type: cell-based
T1 construct: FLAG (N)
Text: (§1) Evaluation of Agonist Activity on Human GIPR and Human GLP-1R with Increase in Intracellular cAMP Concentration as Indicator
(§2) A) Evaluation of Agonist Activity on Human GIPR and Human GLP-IR with Increase in Intracellular cAMP Concentration as Indicator
(§3) (3) Construction of Reporter Plasmid
(§4) Four Copies of a cAMP responsive sequence and a Zeocin resistance gene were transferred to pGL3(R2.2)-Basic Vector (Promega) to construct a Cre-luc(Zeo) reporter plasmid.
(5) Construction of Expression Plasmid of Human GLP-1R Gene
The human GLP-IR gene having an identical sequence to Genebank Accession No. NM_002062 was cloned into a pIRESneo3 vector to prepare hGLP-1/pIRESneo3.
(6) Transfer of Human GLP-1R Gene and Reporter Plasmid to CHO-K1 Cell and Obtaining of Expressing Cell
The Cre-luc (Zeo) obtained in (3) and the plasmid hGLP-1/pIRESneo3 obtained in (5) were transferred to the CHO-K1 cell to obtain a transformant. Subsequently, the cell line inducing the luciferase expression, hGLP-1R/CRE-luc/CHO-K1 cell, was selected from the obtained transformant by adding GLP-1.
(§5) 25 μL each of the hGIPR/CRE-LUC/CHO-K1 cell was inoculated in a 384-well white plate (Corning) in such a way as to provide 5×10^3 cells/well and cultured in a HamF12 medium containing 10% fetal bovine serum, 100 U/mL penicillin, and 100 μg/mL streptomycin in a CO2 incubator at 37° C. overnight. 5 μL of a medium containing a test compound was added to the cells and incubated for 4 hours at the indicated concentration in a CO2 incubator at 37° C. Steady-Glo (Promega) was added in amounts of 30 μL and shaken under light shielding. 20 Minutes later, luciferase activity was measured using a plate reader Envision (PerkinElmer). The GIPR agonist activity was calculated with increase in intracellular cAMP concentration as the indicator when the luciferase activity in the presence of 10 nM of GIP was 100% and the luciferase activity in the case of adding DMSO instead of the test compound was 0%.
The GLP-IR agonist activity was assayed in the same manner as above using the hGLP-1R/CRE-luc/CHO-K1 cell.

human GIPR = target: T2, human GIPR (Homo sapiens, UniProt P48546); assay: Agonist activity on human GIPR, CRE-luciferase reporter assay with increase in intracellular cAMP as indicator (hGIPR/CRE-LUC/CHO-K1 cell); type: cell-based
T2 construct: FLAG (N)
T2 sequence (P48546 22-466): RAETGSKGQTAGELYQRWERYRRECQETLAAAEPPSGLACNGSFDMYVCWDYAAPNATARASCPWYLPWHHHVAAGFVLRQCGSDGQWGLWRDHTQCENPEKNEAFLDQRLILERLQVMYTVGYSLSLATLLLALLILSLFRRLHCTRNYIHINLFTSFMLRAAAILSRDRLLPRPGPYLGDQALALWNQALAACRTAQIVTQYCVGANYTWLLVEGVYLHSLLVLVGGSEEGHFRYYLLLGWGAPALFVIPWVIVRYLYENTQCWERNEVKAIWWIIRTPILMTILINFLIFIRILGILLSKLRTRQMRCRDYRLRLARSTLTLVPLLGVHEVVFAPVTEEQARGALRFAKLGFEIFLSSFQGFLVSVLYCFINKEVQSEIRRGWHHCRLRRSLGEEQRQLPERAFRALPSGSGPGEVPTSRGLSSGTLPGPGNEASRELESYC
Text: as §1, §2
(1) Construction of Expression Plasmid of Human GIPR Gene. The Human GIPR Gene Having an Identical Sequence to Genebank Accession No. U39231 was Cloned into a pMSRα-Neo Vector to Prepare hGIPR/pMSRα-Neo.
(2) Construction of Reporter Plasmid Expressing Cell Luciferase Reporter Gene with a cAMP-Responsive Sequence Located Upstream was Transferred to a CHO-K1 Cell to Construct a CRE-LUC/CHO-K1 Cell.
as §3, §4
(4) Transfer of Human GIPR Gene to CRE-LUC/CHO-K1 Cell and Obtaining of Expressing Cell the Plasmid hGIPR/pMSRα-Neo Obtained in (1) was Transferred to the CRELUC.
CHO-K1 cell obtained in (2) to obtain a transformant. Subsequently, the cell line inducing the luciferase expression, hGIPR/CRE-LUC/CHO-K1 cell, was selected from the obtained transformant by adding GIP.
as §5, with “Steady-Glo (Promega) was added in amounts of 30 μL and shaken under light shielding.” left out

T1 sequence (P43220 24-463): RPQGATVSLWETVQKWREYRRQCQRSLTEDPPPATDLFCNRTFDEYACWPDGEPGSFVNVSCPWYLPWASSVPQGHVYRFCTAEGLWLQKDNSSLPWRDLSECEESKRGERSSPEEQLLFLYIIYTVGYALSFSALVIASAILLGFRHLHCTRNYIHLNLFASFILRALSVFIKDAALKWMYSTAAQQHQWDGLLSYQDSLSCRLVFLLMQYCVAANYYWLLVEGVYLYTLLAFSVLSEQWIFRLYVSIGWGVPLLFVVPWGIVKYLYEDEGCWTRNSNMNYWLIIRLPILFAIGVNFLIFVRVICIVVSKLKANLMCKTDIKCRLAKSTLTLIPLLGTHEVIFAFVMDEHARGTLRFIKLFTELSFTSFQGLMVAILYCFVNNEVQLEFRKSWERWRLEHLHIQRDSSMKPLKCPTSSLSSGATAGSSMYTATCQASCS

| SMILES | EC50 (human GLP-1R) [nM] | EC50 (human GIPR) [nM] |
| --- | --- | --- |
| CC[C@H](C)[C@H](NC(=O)[C@H](CO)NC(=O)[C@H](Cc1ccc(O)cc1)NC(=O)[C@H](CC(=O)O)NC(=O)[C@H](CO)NC(=O)[C@H](CCCCN)NC(=O)[C@@H](NC(=O)[C@@H](NC(=O)CNC(=O)[C@H](CCC(=O)O)NC(=O)C(C)(C)NC(=O)[C@@H](N)Cc1ccc(O)cc1)[C@@H](C)O)C(C)C)C(=O)N[C@@H](CC(C)C)C(=O)N[C@@H](CC(C)C)C(=O)N[C@@H](CC(=O)O)C(=O)N[C@@H](CCCCN)C(=O)N[C@@H](CCC(N)=O)C(=O)N[C@@H](C)C(=O)N[C@@H](CCC(N)=O)C(=O)NC(C)(C)C(=O)N[C@@H](CCC(=O)O)C(=O)N[C@@H](Cc1ccccc1)C(=O)N[C@H](C(=O)N[C@@H](CCCCN)C(=O)N[C@@H](Cc1c[nH]c2ccccc12)C(=O)N[C@@H](CC(C)C)C(=O)N[C@@H](CC(C)C)C(=O)N[C@@H](CCCCN)C(=O)NCC(=O)NCC(=O)N1CCC[C@H]1C(=O)N[C@@H](CO)C(=O)N[C@@H](CO)C(=O)NCC(=O)N[C@@H](C)C(=O)N1CCC[C@H]1C(=O)N1CCC[C@H]1C(=O)N1CCC[C@H]1C(=O)N[C@@H](CO)C(=O)N[C@@H](CCCCNC(=O)CCCCCCCCCCCCCCC(=O)O)C(N)=O)C(C)C [Compound 11] | 180 | 0.1 |
| CCCCCCCCCCCCCCCC(=O)NCCCC[C@H](NC(=O)[C@H](CO)NC(=O)[C@@H]1CCCN1C(=O)[C@@H]1CCCN1C(=O)[C@@H]1CCCN1C(=O)[C@H](C)NC(=O)CNC(=O)[C@H](CO)NC(=O)[C@H](CO)NC(=O)[C@@H]1CCCN1C(=O)CNC(=O)CNC(=O)[C@H](CCCCN)NC(=O)[C@H](CC(C)C)NC(=O)[C@H](CC(C)C)NC(=O)[C@H](Cc1c[nH]c2ccccc12)NC(=O)[C@H](CCCCN)NC(=O)[C@@H](NC(=O)[C@H](Cc1ccccc1)NC(=O)[C@H](CCC(=O)O)NC(=O)C(C)(C)NC(=O)[C@H](CCC(N)=O)NC(=O)[C@H](C)NC(=O)[C@H](CCC(N)=O)NC(=O)[C@H](CCCCN)NC(=O)[C@H](CC(=O)O)NC(=O)[C@H](CC(C)C)NC(=O)[C@H](CC(C)C)NC(=O)[C@@H](NC(=O)[C@H](CO)NC(=O)[C@H](Cc1ccc(O)cc1)NC(=O)[C@H](CC(=O)O)NC(=O)[C@H](CO)NC(=O)[C@H](CCCCN)NC(=O)[C@@H](NC(=O)[C@@H](NC(=O)CNC(=O)[C@H](CCC(=O)O)NC(=O)C(C)(C)NC(=O)[C@@H](N)Cc1ccc(O)cc1)[C@@H](C)O)C(C)C)[C@@H](C)CC)C(C)C)C(N)=O [Compound 10] | 210 | 0.03 |
| CCCCCCCCCCCCCCCC(=O)NCCCC[C@H](NC(=O)[C@H](CO)NC(=O)[C@@H]1CCCN1C(=O)[C@@H]1CCCN1C(=O)[C@@H]1CCCN1C(=O)[C@H](C)NC(=O)CNC(=O)[C@H](CO)NC(=O)[C@H](CO)NC(=O)[C@@H]1CCCN1C(=O)[C@H](CCCCN)NC(=O)[C@H](CCC(N)=O)NC(=O)[C@H](C)NC(=O)[C@H](CC(C)C)NC(=O)[C@H](CC(C)C)NC(=O)[C@H](Cc1c[nH]c2ccccc12)NC(=O)[C@H](CC(N)=O)NC(=O)[C@@H](NC(=O)[C@H](Cc1ccccc1)NC(=O)[C@H](CC(=O)O)NC(=O)[C@H](CCC(N)=O)NC(=O)[C@H](CCC(N)=O)NC(=O)[C@H](Cc1c[nH]cn1)NC(=O)[C@@H](NC(=O)[C@H](CCCCN)NC(=O)[C@H](CC(=O)O)NC(=O)[C@H](CCSC)NC(=O)[C@H](C)NC(=O)[C@@H](NC(=O)[C@H](CO)NC(=O)[C@H](Cc1ccc(O)cc1)NC(=O)[C@H](CC(=O)O)NC(=O)[C@H](CO)NC(=O)[C@@H](NC(=O)[C@H](Cc1ccccc1)NC(=O)[C@@H](NC(=O)CNC(=O)[C@H](CCC(=O)O)NC(=O)[C@H](C)NC(=O)[C@@H](N)Cc1ccc(O)cc1)[C@@H](C)O)[C@@H](C)CC)[C@@H](C)CC)[C@@H](C)CC)C(C)C)C(N)=O [Compound 12] | 86 |  |
| CCCCCCCCCCCCCCCCCCCC(=O)NCC(=O)NCC(=O)NCC(=O)NCC(=O)NCCCC[C@H](NC(=O)[C@H](CO)NC(=O)[C@@H]1CCCN1C(=O)[C@@H]1CCCN1C(=O)[C@@H]1CCCN1C(=O)[C@H](C)NC(=O)CNC(=O)[C@H](CO)NC(=O)[C@H](CO)NC(=O)[C@@H]1CCCN1C(=O)CNC(=O)CNC(=O)[C@H](CCCCN)NC(=O)[C@H](CC(C)C)NC(=O)[C@H](CC(C)C)NC(=O)[C@H](Cc1c[nH]c2ccccc12)NC(=O)[C@H](CCCCN)NC(=O)[C@@H](NC(=O)[C@H](Cc1ccccc1)NC(=O)[C@H](CCC(=O)O)NC(=O)C(C)(C)NC(=O)[C@H](CCC(N)=O)NC(=O)[C@H](C)NC(=O)[C@H](CCC(N)=O)NC(=O)[C@H](CCCCN)NC(=O)[C@H](CC(=O)O)NC(=O)[C@H](CC(C)C)NC(=O)[C@H](CC(C)C)NC(=O)[C@@H](NC(=O)[C@H](CO)NC(=O)[C@H](Cc1ccc(O)cc1)NC(=O)[C@H](CC(=O)O)NC(=O)[C@H](CO)NC(=O)[C@H](CCCCN)NC(=O)[C@@H](NC(=O)[C@@H](NC(=O)CNC(=O)[C@H](CCC(=O)O)NC(=O)C(C)(C)NC(=O)[C@@H](N)Cc1ccc(O)cc1)[C@@H](C)O)C(C)C)[C@@H](C)CC)C(C)C)C(N)=O [Compound 8] | 180 | 0.04 |

From patent publication US12122815B2, “GIP receptor agonist peptide compounds and uses thereof” (TAKEDA PHARMACEUTICAL COMPANY LIMITED, priority 2018, dated 2024)
